From ChEMBL document CHEMBL4270581, “Synthesis of carbohydrazides and carboxamides as anti-tubercular agents” (Eur J Med Chem, 2018)
In brackets after ≈: the same amount, converted by molar mass.

Columns and labels:
[1] = biological target: T1, Enoyl-[acyl-carrier-protein] reductase [NADH] (Mycobacterium tuberculosis) (UniProt P9WGR1); assay: Inhibition of replicating Mycobacterium tuberculosis H37Rv InhA assessed as cell growth inhibition after 7 days by MABA method
T1 sequence (whole entry): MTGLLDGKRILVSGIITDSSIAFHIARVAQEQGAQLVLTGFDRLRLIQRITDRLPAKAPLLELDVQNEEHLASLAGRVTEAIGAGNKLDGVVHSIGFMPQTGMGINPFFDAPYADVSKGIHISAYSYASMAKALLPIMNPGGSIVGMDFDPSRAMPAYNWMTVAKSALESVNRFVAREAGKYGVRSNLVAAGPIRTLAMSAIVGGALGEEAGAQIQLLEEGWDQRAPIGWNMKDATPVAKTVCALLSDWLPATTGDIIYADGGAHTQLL

[2] = Cytotoxicity against HEK293 cells assessed as inhibition of cell viability at 25 ug/ml after 48 hrs by MTT assay relative to control; type: cell-based; conditions: human, read-out: INH

SMILES | MIC [1] [µg/mL] | cytotoxicity at 48 h, 25 ug/ml [2] [%]
CC(C)(C)c1ccc(C(=O)NNC(=O)[C@H](Cc2ccc(O)cc2)NC(=O)c2ccc(-c3ccccc3)o2)cc1 | 0.78 (≈ 1.48 µM) | 18.7
CSc1ccc(-c2ccc(C(=O)NNC(=O)c3ccc(C(C)(C)C)cc3)o2)cc1 | 6.25 (≈ 15.3 µM) | 10.6
O=C(NNC(=O)[C@H](Cc1ccc(O)cc1)NC(=O)c1ccc(-c2ccccc2)o1)c1ccc(Br)cc1 | 0.78 (≈ 1.42 µM) | 16.3
O=C(NNC(=O)[C@H](Cc1ccc(O)cc1)NC(=O)c1ccc(-c2ccc(F)cc2)s1)c1ccc(F)cc1 | 6.25 (≈ 12 µM) | 22.9
O=C(NNC(=O)[C@H](Cc1ccc(O)cc1)NC(=O)c1ccc(Br)o1)c1ccc(F)cc1 | > 25 | –
O=C(N[C@@H](Cc1ccc(O)cc1)C(=O)NNC(=O)c1ccccc1F)c1ccc(-c2ccc(F)cc2)s1 | > 25 | –
Cc1ccc(C(=O)NNC(=O)c2ccc(-c3ccccc3S(C)(=O)=O)o2)cc1 | 3.12 (≈ 7.84 µM) | 22.9
O=C(NNC(=O)[C@H](Cc1ccc(O)cc1)NC(=O)c1ccc(Br)o1)c1ccc(Cl)cc1 | 12.5 (≈ 24.7 µM) | –
COc1ccc(C(=O)NNC(=O)[C@H](Cc2ccc(O)cc2)NC(=O)c2ccc(Br)o2)cc1 | > 25 | –
Cc1ccc(C(=O)NNC(=O)[C@H](Cc2ccc(O)cc2)NC(=O)c2ccc(-c3ccccc3)o2)cc1 | 12.5 (≈ 25.9 µM) | –
CSc1ccc(-c2ccc(C(=O)NNC(=O)c3ccccc3F)o2)cc1 | 6.25 (≈ 16.9 µM) | 16.9
NNC(=O)c1ccncc1 | 0.1 (≈ 0.729 µM) | –
COc1ccccc1C(=O)NNC(=O)c1ccc(-c2ccc(SC)cc2)o1 | 12.5 (≈ 32.7 µM) | –
O=C(NNC(=O)[C@H](Cc1ccc(O)cc1)NC(=O)c1ccc(-c2ccc(F)cc2)s1)c1ccc(Cl)cc1 | 0.78 (≈ 1.45 µM) | 17
CC(C)(C)c1ccc(C(=O)NNC(=O)[C@H](Cc2ccc(O)cc2)NC(=O)c2ccc(Br)o2)cc1 | 3.12 (≈ 5.91 µM) | 26.6
COc1ccc(C(=O)NNC(=O)[C@H](Cc2ccc(O)cc2)NC(=O)c2ccc(-c3ccc(OC)cc3)o2)cc1 | 0.78 (≈ 1.47 µM) | 29.9
COc1ccc(C(=O)NNC(=O)[C@H](Cc2ccc(O)cc2)NC(=O)c2ccc(-c3ccc(F)cc3)s2)cc1 | 1.56 (≈ 2.92 µM) | 23.6
CO[C@H]1/C=C/O[C@@]2(C)Oc3c(C)c(O)c4c(O)c(c(/C=N/N5CCN(C)CC5)c(O)c4c3C2=O)NC(=O)/C(C)=C\C=C\[C@H](C)[C@H](O)[C@@H](C)[C@@H](O)[C@@H](C)[C@H](OC(C)=O)[C@@H]1C | 0.2 (≈ 0.243 µM) | –
COc1ccc(C(=O)NNC(=O)c2ccc(-c3ccc(SC)cc3)o2)cc1 | 0.78 (≈ 2.04 µM) | 17.4
O=C(NNc1nc2ccccc2s1)c1ccc(-c2ccccc2)o1 | 25 (≈ 74.5 µM) | –
CSc1ccc(-c2ccc(C(=O)NNC(=O)c3ccc(F)cc3)o2)cc1 | 0.39 (≈ 1.05 µM) | 27
CSc1ccc(-c2ccc(C(=O)NNC(=O)c3ccco3)o2)cc1 | 6.25 (≈ 18.3 µM) | 11.6
CSc1ccc(-c2ccc(C(=O)NNC(=O)c3ccc(O)cc3)o2)cc1 | 0.78 (≈ 2.12 µM) | 17.4
O=C(NNC(=O)[C@H](Cc1ccc(O)cc1)NC(=O)c1ccc(-c2ccc(F)cc2)o1)c1ccc(Br)cc1 | 25 (≈ 44.1 µM) | –
CC[C@@H](CO)NCCN[C@@H](CC)CO | 1.56 (≈ 7.64 µM) | –
COc1ccc(C(=O)NNC(=O)c2ccc(-c3ccccc3SC)s2)cc1 | > 25 | –
